± gives the standard deviation of the averaged measurements.
Columns and labels:
ABT-737 = compound: CN(C)CC[C@H](CSc1ccccc1)Nc1ccc(S(=O)(=O)NC(=O)c2ccc(N3CCN(Cc4ccccc4-c4ccc(Cl)cc4)CC3)cc2)cc1[N+](=O)[O-] [ABT-737]; assay: surviving fraction relative to DMSO-only wells; higher = less growth inhibition; conditions: exposure time: 5 days
Procedure, shortened: (§1)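 Tumour cell lines were seeded in log phase at 250–500 cells per well into 384-well plates. Starting 24 hours later, inhibitors were present continuously for five days at 0.5, 1, 5, 10, 50, 100, 500 and 1000 nM. Surviving fraction, from CellTiter-Glo luminescence, is normalised to the median of DMSO-only wells. Three screens per line were required, with replicate Pearson r >0.7 and median Z' >0.3 for a line to be kept.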

FLUOROURACIL = compound: O=c1[nH]cc(F)c(=O)[nH]1 [FLUOROURACIL]; assay: as above; conditions: exposure time: 5 days
Procedure, shortened: as §1

Test System	surviving fraction (ABT-737; 0.5 nM)	surviving fraction (ABT-737; 1 nM)	surviving fraction (ABT-737; 5 nM)	surviving fraction (ABT-737; 10 nM)	surviving fraction (ABT-737; 50 nM)	surviving fraction (ABT-737; 100 nM)	surviving fraction (ABT-737; 500 nM)	surviving fraction (ABT-737; 1000 nM)	surviving fraction (FLUOROURACIL; 0.5 nM)	surviving fraction (FLUOROURACIL; 1 nM)	surviving fraction (FLUOROURACIL; 5 nM)	surviving fraction (FLUOROURACIL; 10 nM)	surviving fraction (FLUOROURACIL; 50 nM)	surviving fraction (FLUOROURACIL; 100 nM)	surviving fraction (FLUOROURACIL; 500 nM)	surviving fraction (FLUOROURACIL; 1000 nM)
JURKAT HAEMATOPOIETIC AND LYMPHOID TISSUE	1.04 ± 0.026	1.04 ± 0.029	1.05 ± 0.024	1.02 ± 0.028	0.949 ± 0.025	0.932 ± 0.035	0.752 ± 0.041	0.549 ± 0.0064	1.14 ± 0.028	1.09 ± 0.0023	1.09 ± 0.049	1.09 ± 0.016	1.04 ± 0.069	1.03 ± 0.061	1.07 ± 0.022	0.842 ± 0.057
KPD BONE	1.06 ± 0.038	1.02 ± 0.049	1.11 ± 0.03	1.13 ± 0.069	1.07 ± 0.017	1.12 ± 0.21	0.839 ± 0.023	0.691 ± 0.042	0.982 ± 0.018	0.922 ± 0.052	1.02 ± 0.07	1.03 ± 0.044	1.05 ± 0.048	1.02 ± 0.051	0.9797 ± 0.0032	0.926 ± 0.022
LM7 BONE	0.97 ± 0.065	1.03 ± 0.09	1.11 ± 0.04	1.1 ± 0.096	1.08 ± 0.061	1.13 ± 0.057	0.921 ± 0.095	0.905 ± 0.043	0.976 ± 0.039	0.992 ± 0.027	1.05 ± 0.043	1.01 ± 0.047	0.851 ± 0.057	0.856 ± 0.077	0.73 ± 0.079	0.628 ± 0.083
LNCAP PROSTATE	0.971 ± 0.034	0.971 ± 0.041	0.932 ± 0.065	0.882 ± 0.025	0.973 ± 0.035	0.932 ± 0.04	0.914 ± 0.05	0.856 ± 0.1	1.07 ± 0.039	1.17 ± 0.076	1.07 ± 0.11	1.05 ± 0.043	1.17 ± 0.022	1.12 ± 0.021	0.964 ± 0.18	0.73 ± 0.11
MCF7 BREAST	0.9422 ± 0.0083	0.957 ± 0.048	0.993 ± 0.02	1 ± 0.039	1.02 ± 0.052	1.02 ± 0.044	0.985 ± 0.02	1 ± 0.022	0.929 ± 0.055	0.907 ± 0.043	0.93 ± 0.035	0.893 ± 0.027	0.973 ± 0.11	0.986 ± 0.032	0.837 ± 0.054	0.707 ± 0.033
MDAMB134 BREAST	1.1 ± 0.12	0.848 ± 0.18	0.786 ± 0.071	0.831 ± 0.016	0.908 ± 0.096	0.914 ± 0.063	0.764 ± 0.04	0.471 ± 0.033	0.823 ± 0.042	0.964 ± 0.16	0.832 ± 0.082	0.877 ± 0.18	0.745 ± 0.094	0.744 ± 0.12	0.748 ± 0.0042	0.714 ± 0.016
MDAMB157 BREAST	1.02 ± 0.026	0.995 ± 0.13	0.952 ± 0.069	0.964 ± 0.062	1.01 ± 0.032	1.01 ± 0.057	0.938 ± 0.028	0.893 ± 0.059	0.981 ± 0.019	0.969 ± 0.12	1.05 ± 0.055	1.05 ± 0.1	1.02 ± 0.03	0.978 ± 0.017	0.943 ± 0.044	0.836 ± 0.059
MDAMB231 BREAST	1 ± 0.031	0.99 ± 0.018	1.01 ± 0.014	1.01 ± 0.018	1.02 ± 0.041	1.01 ± 0.03	1 ± 0.018	0.941 ± 0.02	0.978 ± 0.019	0.947 ± 0.014	0.975 ± 0.039	0.972 ± 0.022	0.961 ± 0.035	0.914 ± 0.041	0.986 ± 0.021	0.865 ± 0.022
MDAMB361 BREAST	0.853 ± 0.098	0.812 ± 0.15	0.815 ± 0.058	0.921 ± 0.11	0.871 ± 0.032	0.909 ± 0.085	0.843 ± 0.055	0.846 ± 0.086	0.725 ± 0.094	0.747 ± 0.067	0.8 ± 0.092	0.758 ± 0.12	0.537 ± 0.042	0.618 ± 0.027	0.704 ± 0.08	0.65 ± 0.061
MDAMB436 BREAST	0.985 ± 0.085	1.09 ± 0.041	1.05 ± 0.14	0.972 ± 0.16	0.998 ± 0.1	1.14 ± 0.31	0.961 ± 0.17	0.962 ± 0.083	0.937 ± 0.046	0.921 ± 0.063	0.964 ± 0.12	0.846 ± 0.11	0.84 ± 0.12	0.815 ± 0.029	0.722 ± 0.031	0.625 ± 0.013
MDAMB453 BREAST	1.07 ± 0.046	1.08 ± 0.083	1.1 ± 0.047	1.13 ± 0.067	1.09 ± 0.036	1.1 ± 0.055	1.07 ± 0.057	1 ± 0.047	1.01 ± 0.092	1.01 ± 0.13	1.06 ± 0.11	0.987 ± 0.079	0.979 ± 0.035	0.968 ± 0.016	0.795 ± 0.026	0.706 ± 0.009
MDAMB468 BREAST	1.14 ± 0.06	1.08 ± 0.018	1.08 ± 0.037	1.11 ± 0.066	1.1 ± 0.045	1.11 ± 0.11	1.08 ± 0.03	1.09 ± 0.12	0.887 ± 0.039	0.885 ± 0.095	0.919 ± 0.064	0.89 ± 0.058	0.881 ± 0.12	0.816 ± 0.06	0.859 ± 0.076	0.706 ± 0.097
MFM223 BREAST	1.39 ± 0.39	1.4 ± 0.37	1.36 ± 0.35	1.52 ± 0.56	1.08 ± 0.091	1.05 ± 0.14	1.05 ± 0.082	1.2 ± 0.054	1.14 ± 0.21	1.12 ± 0.17	1.18 ± 0.22	1.096 ± 0.0076	0.719 ± 0.014	0.772 ± 0.062	0.738 ± 0.036	0.667 ± 0.032
MG63 BONE	1.08 ± 0.034	1.07 ± 0.024	1.12 ± 0.047	1.1 ± 0.05	1.11 ± 0.033	1.09 ± 0.058	1.07 ± 0.016	1.06 ± 0.04	1.02 ± 0.041	1 ± 0.028	1.05 ± 0.021	1.03 ± 0.019	1.06 ± 0.024	0.99 ± 0.023	0.947 ± 0.024	0.805 ± 0.013
MHM BONE	1.03 ± 0.053	1.08 ± 0.062	1.07 ± 0.045	1.1 ± 0.046	1.07 ± 0.034	1.15 ± 0.013	1.09 ± 0.015	1.12 ± 0.015	1.04 ± 0.07	1.02 ± 0.028	1.06 ± 0.047	1.04 ± 0.039	1.084 ± 0.0067		1.063 ± 0.0092	0.974 ± 0.034
NCIH441 LUNG	1.19 ± 0.027	1.22 ± 0.05	1.115 ± 0.0076	1.11 ± 0.052	1.11 ± 0.045	1.12 ± 0.077	1.11 ± 0.086	1.06 ± 0.15	1.08 ± 0.054	1.05 ± 0.076	1.06 ± 0.11	1.1 ± 0.021	0.996 ± 0.16	0.95 ± 0.18	0.998 ± 0.1	0.798 ± 0.11
NOS1 BONE	1.07 ± 0.093	1.05 ± 0.085	1.32 ± 0.035	1.14 ± 0.048	1.19 ± 0.092	1.14 ± 0.048	1.09 ± 0.081	1.11 ± 0.17	1.01 ± 0.032	1.01 ± 0.14	1.09 ± 0.12	1.14 ± 0.11	0.91 ± 0.12	0.943 ± 0.073	0.799 ± 0.065	0.694 ± 0.081
NY BONE	0.986 ± 0.029	1.02 ± 0.032	1.09 ± 0.064	1.09 ± 0.03	1.07 ± 0.012	1.071 ± 0.0072	0.99 ± 0.017	0.957 ± 0.035	0.98 ± 0.029	0.923 ± 0.032	1.03 ± 0.034	1.01 ± 0.028	1.07 ± 0.02	0.993 ± 0.018	0.934 ± 0.025	0.821 ± 0.014
OS25HAL BONE	0.984 ± 0.048	1.07 ± 0.035	0.975 ± 0.028	1.02 ± 0.025	1.06 ± 0.082	1.12 ± 0.042	0.983 ± 0.045	0.882 ± 0.076	1 ± 0.062	1.01 ± 0.056	0.985 ± 0.019	0.977 ± 0.014	1.05 ± 0.082	1.15 ± 0.014	0.939 ± 0.032	0.808 ± 0.032
OSHN BONE	1.09 ± 0.026	1.1 ± 0.018	1.08 ± 0.014	1.09 ± 0.014	1.11 ± 0.028	1.11 ± 0.022	1.02 ± 0.049	0.998 ± 0.035	1.01 ± 0.014	0.972 ± 0.029	1.061 ± 0.007	1.001 ± 0.0042	1.007 ± 0.0011	0.9777 ± 0.0071	0.989 ± 0.014	0.875 ± 0.029
PCI30 HEADNECK	1.12 ± 0.029	1.09 ± 0.061	1.09 ± 0.096	1.07 ± 0.026	1.08 ± 0.023	1.13 ± 0.11	0.919 ± 0.091	0.909 ± 0.022	0.934 ± 0.056	1.06 ± 0.029	1.08 ± 0.058	1.1 ± 0.058	0.97 ± 0.067	0.981 ± 0.082	0.959 ± 0.06	0.931 ± 0.034
